# Reference: patent publication US12029748B2, “Synergistic composition for maintenance of healthy balance of microflora” (KIMBERLY-CLARK WORLDWIDE, INC., priority 2017, dated 2024)
# Assays:
# L. crispatus and E. coli = test: Therapeutic Effect Protocol: L. crispatus / E. coli co-culture, ratio after 36 hours; format: cell-based, Lactobacillus crispatus; E. coli; conditions: for Therapeutic Efficacy Results (Lactobacillus/E. coli) 0.10%: nitrogen compound 0.10 wt/vol % with 1.0 wt/vol % α methyl-D glucoside (10:1); for Therapeutic Efficacy Results (Lactobacillus/E. coli) 0.10% / Therapeutic Efficacy Results (Lactobacillus/E. coli) 0.50%: 36 hours anaerobic co-culture, 37° C.; for Therapeutic Efficacy Results (Lactobacillus/E. coli) 0.50%: nitrogen compound 0.50 wt/vol % with 1.0 wt/vol % α methyl-D glucoside (2:1)
# In short: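 L. crispatus and E. coli were mixed 1,000:1 (10^5-10^6 and 100-1,000 CFU per 5 mL tube) in LAPT-g medium at pH 6.5, containing 1% α-methyl-D-glucoside plus nitrogen compound at 0.1-1% w/v, in duplicate. After 36 h anaerobic incubation at 37 °C, each species was counted by selective plating (MRS anaerobic, TSA aerobic), and the L. crispatus:E. coli ratio and final pH were recorded.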
# [1] = Initial pH screening of the composition; format: physicochemical; conditions: for I pH (initial pH), 0.10%: nitrogen compound 0.10 wt/vol % with 1.0 wt/vol % α methyl-D glucoside in medium; for I pH (initial pH), 0.50%: nitrogen compound 0.50 wt/vol % with 1.0 wt/vol % α methyl-D glucoside in medium
# In short: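 Compounds were added to LAPT-g medium (pH adjusted to 6.5) at a final 0.1-1.0%. Solubility was judged visually by precipitate or turbidity, and insoluble compositions got no pH measurement. Initial pH was scored Low (<5.5), High (>6.5) or Pass (5.5-6.5), and only soluble Pass compositions went on to efficacy testing.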
# [2] = Solubility screening of the composition (visual precipitates or turbidity); format: physicochemical; conditions: for Solubility of the composition, 0.50%: nitrogen compound 0.50 wt/vol % with 1.0 wt/vol % α methyl-D glucoside in medium; for Solubility of the composition, 1.00%: nitrogen compound 1.00 wt/vol % with 1.0 wt/vol % α methyl-D glucoside in medium
# Source text: Each composition in Table 1 went through initial screening measures of solubility and initial pH (“I pH”). […] When a specific concentration of a nitrogen containing compound was insoluble, the initial and final pH (“F pH”) of the combined composition was not measured and accordingly are each marked as “NM.” Additionally, initial pH of the composition was checked as a screening measure. The initial pH was marked as either Low (“L”), High (“H”), or Pass (“P”). A Low initial pH corresponds to an initial pH being less than 5.5, a High initial pH corresponds to an initial pH being greater than 6.5, and a Pass initial pH corresponds to the pH being at or between 5.5-6.5. […] As part of the Therapeutic Effect Protocol, a final pH was also measured after the compositions that were tested against the Lactobacillus and E. coli.
# All of the ingredients in Table 2 were combined and the pH was adjusted to 6.5. […] To evaluate the effect of various nitrogen containing therapeutic agents on the growth of bacteria, the LAPT-g media, prepared as described above, was supplemented with various nitrogen containing compound therapeutic agents to a final test concentration between 0.1 and 1.0%. As initial screening measures, solubility and initial pH of each composition were checked. If a specific composition was insoluble (as detected by visual indication of precipitates or turbidity), then no further therapeutic efficacy testing was undertaken on that composition. Additionally, if the initial pH of the composition was below 5.5 (“Low”) or was above 6.5 (“High”), then no further therapeutic efficacy testing was undertaken on that composition.
SMILES,Therapeutic Efficacy Results (Lactobacillus/E. coli) 0.10% (L. crispatus and E. coli),"I pH (initial pH), 0.10% [1]","Solubility of the composition, 0.50% [2]","Solubility of the composition, 1.00% [2]",Therapeutic Efficacy Results (Lactobacillus/E. coli) 0.50% (L. crispatus and E. coli),"Therapeutic effect when ratio α methyl-D glucoside : nitrogen compound is at least about 2:1, but not at 1:1 (L. crispatus and E. coli; with α methyl-D glucoside, ratio at least about 2:1, not 1:1)","I pH (initial pH), 0.50% [1]"
CC[C@H](C)[C@H](N)C(=O)O [L-Isoleucine],1.51,P (a Pass initial pH corresponds to the pH being at or between 5.5-6.5),Insol.,Insol.,,,
CC(C)C[C@H](N)C(=O)O [L-Leucine],2.9,P (a Pass initial pH corresponds to the pH being at or between 5.5-6.5),,Insol.,0.24,provided a therapeutic effect,P (a Pass initial pH corresponds to the pH being at or between 5.5-6.5)
N[C@@H](Cc1ccccc1)C(=O)O [L-Phenylalanine],0.09,P (a Pass initial pH corresponds to the pH being at or between 5.5-6.5),Insol.,Insol.,,,
N[C@@H](Cc1c[nH]c2ccccc12)C(=O)O [L-Tryptophan],0.66,P (a Pass initial pH corresponds to the pH being at or between 5.5-6.5),,Insol.,0.06,,P (a Pass initial pH corresponds to the pH being at or between 5.5-6.5)
O=c1cc[nH]c(=O)[nH]1 [Uracil],0.43,P (a Pass initial pH corresponds to the pH being at or between 5.5-6.5),Insol.,Insol.,,,
